Results published in US8617563B2, “Antichlamydial agents” (Duke University, priority 2011, dated 2013).
Where a SMILES comes first, the peptide text is derived from it. [ ]: non-standard residue; d: D form. The star is where a group is joined. 2Abz = Nc1ccccc1C(=O)O; Cbz = O=C(OCc1ccccc1)*; CH2F = FC*

Tests used:
[1] = system: C. muridarum; assay: C. muridarum growth in HeLa cells (recovered IFUs); assay type: cell-based; conditions: caspase-1 inhibitor at 2 hpi
Experimental: Cells were infected with an MOI of 1 and treated with CPAF inhibitor (SEQ ID NO:7) or control (SEQ ID NO:11) peptides at 12 hpi, fixed at 24 hpi and analyzed by IF with anti-L2 polyclonal antisera. Inclusion size was determined by measuring the inclusion diameter in μm by confocal microscopy of 50 infected cells. The number of cells with fragmented inclusions was determined by counting the number of infected cells out of 50 with more than one inclusion. (C) Sequence alignment and % sequence identify of full length CPAF and predicted inhibitory peptide sequence between C. trachomatis serovar LGV-L2, Chlamydia muridarum, and Chlamydophila caviae was determined using Geneious software (available at the Geneious website). […] GPIC or C. muridarum infected whole cell protein lysate was preincubated with SEQ ID NO:7 peptide or SEQ ID NO:11 control peptide, mixed with GST-IncC at 37° C., resolved by SDS-PAGE and stained with Coomassie blue. […] Inhibition of C. muridarum (E) and C. ceviae (F) growth was determined by counting the number of recovered IFUs. […] Inclusions were detected by IF with anti-LGV-L2 (A, B, E) antisera or anti-chlamydial LPS (F) monoclonal antibodies, and host nuclei sere detected by staining.

[2] = system: epithelial cells infected with C. trachomatis; assay: Host cell death (condensed nuclei) in C. trachomatis infected cells; assay type: cell-based; conditions: caspase inhibitor added before the CPAF inhibitor peptide
Experimental: FIG. 11 depicts (A) that inhibiting CPAF activity induces host cell death. The indicated peptides (anti-CPAF peptide refers to SEQ ID NO:7) were added to infected cells 12 hpi and the percentage of infected cells with condensed nuclei was quantified at the indicated times. (B-C) Inhibition of CPAF activity induces apoptosis. Infected cells were treated with peptides and the percentage of AnnexinV-FITC positive (propidium iodide (PI) negative) was determined by flow cytometry (B). In parallel samples, cleavage of Caspase-3, a hallmark of apoptosome activation, was monitored by immunoblot analysis. Actin and MOMP are host and bacterial loading controls respectively. Staurosporine (2 μM)-treatment was used as a positive control and the pan-caspase inhibitor ZVAD-FMK were used as controls. (D) Cell death is blocked by a pan-Caspase inhibitor. Infected cells were treated as in (A) in the presence or absence of ZVAD-FMK, labeled with PI and analyzed by flow cytometry. Cells pre-treated with ZVAD-FMK and the control peptide lacked PI staining.
FIG. 12 depicts (A) low-magnification view of C. trachomatis LGV-L2 infected HeLa monolayers (30 h) treated with SEQ ID NO:7 or SEQ ID NO:11 peptides. […] HeLa cells infected with C. muridarum were treated with Ac-YVAD-CMK at 2 hpi, SEQ ID NO:7 peptide or SEQ ID NO:11 control peptide at 12 hpi and the percentage of infected cells with condensed nuclei was assessed at 48 hpi (F). […] The percentage of infected cells with condensed nuclei was assessed at 48 hpi (G). […] Cell death in infected and uninfected cells treated with CPAF inhibitory peptides or control peptides was determined by counting the number of condensed nuclei of ˜1000 cells.
FIG. 13 depicts (A) that Caspase-1 inhibitors block Chlamydia-mediated cell death. […] Cells were fixed and the percentage of cells with condensed nuclei determined at 24 hpi. […] Infected cells were labeled with a cell-permeable fluorescent substrate of Caspase-1 and treated with inhibitory peptides, and Caspase-1 activity was monitored by flow cytometry. […]

[3] = target: T1, CPAF (Chlamydia trachomatis serovar D, UniProt O84866); assay: HPLC-based CPAF enzyme kinetics with model substrate; assay type: biochemical, C. trachomatis; design: 6xHis; made in house; host or cells: E. coli BL21 (DE3), plasmid pET30b-CPAF; conditions: CPAF 62.5 nM, substrate 0-6 mM, 25° C.
Experimental: Proteolytic enzyme kinetics of CPAF were measured using an HPLC-based assay that quantifies the cleavage of an Abz-tagged model CPAF substrate derived from human vimentin:
Standard assays were performed in a total volume of 100 μL containing Assay Buffer (150 mM NaCl, 50 mM Tris pH 7.5), CPAF (62.5 nM), and varying concentrations (0-6 mM) of CPAF substrate (SEQ ID NO:9). Reactions were initiated by the addition of enzyme and incubated at 25° C. for 90 seconds. Incubation was followed by removal of 80 μL aliquots and quenched by the addition of 40 μL 1.2 M HCl. […] Abz-containing peptides were detected by fluorescence emission at 420 nm, and the composition and identity of each product were confirmed by mass spectrometry by LCMS. […] The percentage of substrate converted to product was calculated from the HPLC data by integrating the area under the peaks in the chromatograms using PeakFit v4.11 (available from Systat Software), followed by analysis in Grafit 6.0 (available from Erithacus Software) using the following equation: […]
Target sequence in this assay (O84866 276-601): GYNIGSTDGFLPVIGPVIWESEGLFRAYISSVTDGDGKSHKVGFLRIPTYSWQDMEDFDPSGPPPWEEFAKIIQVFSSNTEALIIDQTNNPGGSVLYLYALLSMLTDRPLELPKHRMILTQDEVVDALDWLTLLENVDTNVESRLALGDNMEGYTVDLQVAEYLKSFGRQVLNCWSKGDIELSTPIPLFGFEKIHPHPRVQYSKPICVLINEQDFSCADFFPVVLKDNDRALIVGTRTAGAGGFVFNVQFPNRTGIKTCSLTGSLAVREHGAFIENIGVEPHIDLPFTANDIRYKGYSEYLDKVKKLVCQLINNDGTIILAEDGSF
Target sequence in this assay (O84866 1-234, added parts left off): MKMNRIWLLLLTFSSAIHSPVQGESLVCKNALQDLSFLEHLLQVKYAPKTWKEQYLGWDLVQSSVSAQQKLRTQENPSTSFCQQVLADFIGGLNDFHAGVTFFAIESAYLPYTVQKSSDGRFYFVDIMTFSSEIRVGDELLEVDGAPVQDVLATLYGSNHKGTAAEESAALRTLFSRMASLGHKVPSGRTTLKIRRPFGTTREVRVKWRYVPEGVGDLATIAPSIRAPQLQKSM

[4] = target: T1, CPAF; assay type: biochemical, C. trachomatis; design: 6xHis; made in house; host or cells: E. coli (pET30b); conditions: GST-chlamydial substrates in presence of peptides
Experimental: FIG. 4 depicts (A) Recombinant Chlamydia ORFs were tested for sensitivity to host and bacterial derived proteases. […] Purified his-tagged CPAF was incubated with GST-tagged chlamydial substrates at 37° C. for 20 min with increasing amounts of lactacystin. Cleavage products were run on an SDS PAGE gel and visualized with Coomassie blue staining. (C) Schematic summary of CPAF targets. […] Membranes from Chlamydia-infected HeLa cells were harvested and purified at 0, 24, 36 and 48 hours post-infection, and the abundance of the chlamydial proteins Ct005, IncC and IncD were monitored with specific antibodies. Na/K ATPase and IncG served as host and bacterial-loading controls, respectively.
Cytosols from Chlamydia-infected HeLa cells (40 hrs) or recombinant his-tagged CPAF were pre-treated with rabbit polyclonal anti-CPAF or anti-IncA antisera, and incubated with GST-tagged Chlamydia proteins for 20 min at 37° C. […] Three example proteins shown include a type-III secretion (T3S) core component (CdsQ) a T3S chaperone (Mcsc) and a T3S needle component (Ct584). Processing of recombinant proteins in A-B were monitored by immunoblot analysis with specific antibodies. (C) Protease inhibitor profile of recombinant CPAF. Example shown for the chlamydial substrate GST-IncC. Degradation products were visualized by SDS-PAGE followed by staining with Coomassie blue. […]
Uninfected and HeLa cells pre-infected with L2 for 30 hrs were treated with inhibitory peptides and infected with EBs for 10 min Tarp translocation was indirectly visualized with an anti-phosphotyrosine antibody (A) and quantified by counting 50 separate cells (B). The stability of newly translocated Tarp was assessed by infecting cells as in (A) but with S^35-labeled EBs, followed by sequential immunoprecipitation of Tarp and MOMP and Phosphoimager analysis of precipitated material (C (I-IV)). […] IC50 values were determined by assessing CPAF cleavage of an Abz-tagged CPAF substrate (SEQ ID NO:9) by HPLC. […] Extracellular bacteria were determined. […] The number of internalized EBs was quantified per cell (H). […]
Target sequence in this assay (O84866 1-234, added parts left off): as above
Target sequence in this assay (O84866 276-601): as the sequence (O84866 276-601) above

Compound: CC(=O)N[C@@H](Cc1ccc(O)cc1)C(=O)N[C@H](C(=O)N[C@@H](C)C(=O)N[C@@H](CC(=O)O)C(=O)CCl)C(C)C [Ac-YVAD-CMK, reference compound]
- Rescue of C. muridarum growth defect in cells treated with SEQ ID NO:7 [1]: does not rescue the growth defect
- Block of death of Chlamydia-infected cells treated with SEQ ID NO:7 [2]: efficiently blocked the death

Compound: CC(C)C[C@H](NC(=O)[C@H](CCCNC(=N)N)NC(=O)[C@@H](NC(=O)c1ccccc1N)C(C)C)C(=O)N[C@@H](CCCNC(=N)N)C(=O)N[C@@H](CO)C(=O)N[C@@H](CO)C(=O)N[C@H](C(=O)N1CCC[C@H]1C(=O)NCC(=O)N[C@H](C(N)=O)C(C)C)C(C)C [SEQ ID NO:9, Abz-V-R-L-R-S-S-V-P-G-V-NH2] (H-[2Abz]VRLRSSVPGV-NH2)
- kcat of CPAF proteolysis of model substrate [3]: 13.2 s⁻¹
- Km ([3]; read-out: KM of CPAF proteolysis of model substrate): 880 µM

Compound: COC(=O)C[C@H](NC(=O)[C@H](C)NC(=O)[C@@H](NC(=O)OCc1ccccc1)C(C)C)C(=O)CF [ZVAD-FMK] (Cbz-Val-Ala-Asp(OMe)-CH2F)
- Block of death of Chlamydia-infected cells treated with SEQ ID NO:7 [2]: efficiently blocked the death

Compound: H-NFALSHFRLPLSTYKEMPYVSHWAGRRRRRRRRR-NH2 [SEQ ID NO:11, reference compound]
- Inhibition of degradation of CPAF substrates in vitro [4]: no CPAF inhibitory activity in vitro
